Results from US8252507B2, “Photoactive compound and photosensitive resin composition comprising the same” (LG Chem, Ltd., priority 2008, dated 2012).

Assay: Solubility measurement in organic solvents
Format: physicochemical
Conditions: for Solubility in 3-MBA: amount (g) of compound completely dissolved in 3-methoxybutyl acetate; for Solubility in CH: amount (g) of compound completely dissolved in cyclohexanone; for Solubility in DPM: amount (g) of compound completely dissolved in dipropylene glycol methyl ether; for Solubility in EEP: amount (g) of compound completely dissolved in ethyl-3-ethoxy propionate; for Solubility in PGMEA: amount (g) of compound completely dissolved in propylene glycol methyl ether acetate
Protocol: The solubilities of Irgacure OXE-02 (Ciba Specialty Chemical) of Comparative Example 1, the compounds of Comparative Examples 2-3, and the compound of Example 1, which contains oxime ester moieties, were measured in various solvents, including propylene glycol methyl ether acetate (PGMEA), dipropylene glycol methyl ether (DPM), 3-methoxybutyl acetate (MBA), ethyl-3-ethoxy propionate (EEP) and cyclohexanone (CH). The solubility of each of the compounds was determined by measuring the amount (g) of the compound completely dissolved in the corresponding solvent.

SMILES	Solubility in 3-MBA	Solubility in CH	Solubility in DPM	Solubility in EEP	Solubility in PGMEA
CCn1c2ccc(C(=O)c3ccccc3C)cc2c2cc(/C(C)=N/OC(C)=O)ccc21 [Comparative Example 1]	10 g	40 g	5 g	10 g	12 g
CC(=O)O/N=C(\C)c1ccc(-c2nc(C(Cl)(Cl)Cl)nc(C(Cl)(Cl)Cl)n2)cc1 [Comparative Example 2, 2,4-trichloromethyl-(4′-acetylphenylacetoxime)-6-triazine]	5 g	25 g	3 g	6 g	7 g
CC(=O)O/N=C/c1ccc(-c2ccc(-c3nc(C(Cl)(Cl)Cl)nc(C(Cl)(Cl)Cl)n3)cc2)cc1 [Comparative Example 3, 2,4-trichloromethyl-(4′-formylbiphenylacetoxime)-6-triazine]	5 g	20 g	2 g	5 g	7 g
CCn1c2ccc(C(=O)c3ccc(OCC4COC(C)(C)O4)cc3)cc2c2cc(/C(CC(c3ccccc3)N(OC(C)=O)C(C)=O)=N/OC(C)=O)ccc21 (centres unmarked) [Example 1]	13 g	60 g	7 g	15 g	20 g
